In brackets after ≈: the same amount, converted by molar mass. Entries after “also recorded” stand apart in the source; their conditions may differ. Like-named read-outs stand apart in the source and are kept apart here. Ends that are not written are not given here. Peptide text beside a SMILES is read from it.
Columns and labels:
[1] = system: Lambda DNA/HindIII marker; assay: Gel retardation assay (DNA aggregation); format: binding; details: 100 ng DNA, 5 or 10 µM peptide in water, 30 min at room temperature, 1% agarose gel
Method: Interactions of peptides with DNA was visualized with gel retardation assay ([Hsu et al., 2005]). 100 ng Lambda DNA/HindIII marker (ThermoFisher Scientific) was incubated with 0, 5 or 10 µM synthetic NCRs or NCR derivatives in water for 30 min at room temperature and then loaded into 1% agarose gel. Electrophoresis of DNA fragments separated the mobile HindIII-digested DNA fragments while the aggregated DNA remained in the loading wells.
FIGURE 6 Aggregation of DNA by NCR peptides. Lambda HindIII digested DNA was incubated without (0) or with NCR peptides at 5 or 10 μM concentration.

[2] = system: Acinetobacter baumannii (ATCC 17978); assay: microbe, parasite or virus in culture; format: cell-based; details: for MBC: read-out: MBC, minimal bactericidal concentration against A. baumannii
Procedure, shortened: (§1)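 Complete loss of viable bacteria after 3 h defined the MBC. Two-fold peptide series, 25 µM top concentration, ~10^7 log-phase cells in potassium-phosphate buffer pH 7.4.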

C. albicans = assay: Scanning electron microscopy of cell morphology; format: cell-based, Candida albicans; details: 30 min treatment, peptide 1.6, 3.125 or 25 µM as in Figure 4 legend
Method: (§2) A. baumannii and C. albicans were grown and treated the same way as for the membrane permeability assay. Cells were then fixed with 2.5% (v/v) glutaraldehyde in phosphate buffered saline (PBS, pH 7.4). 5 μl of the above bacterial and yeast suspensions were spotted on a silicon disk coated with 0.01% Poly-L-Lysine. The filters were washed twice with PBS and gradually dehydrated with ethanol series (30, 50, 70, 80%, and three times 100% ethanol, each for minimum 30 min). The samples were dried with a critical point dryer (K850: Quorum Technologies Ltd.), followed by 12 nm gold coating and observed under a JEOL JSM-7100F/LV scanning electron microscope.

A. baumannii = assay: Scanning electron microscopy of cell morphology; format: cell-based, Acinetobacter baumannii; details: 30 min treatment, peptide 1.6 or 3.125 µM as in Figure 3 legend
Method: as §2
FIGURE 3 Viability, membrane permeability and morphology of A. baumannii cells after NCR treatment (A–L) SYTO9/PI staining observed with confocal microscope, (M–X) Cell morphology observed with SEM. (A,M) untreated control, (B,N) CaNCR13, 3.125 µM, (C,O) CaNCR63, 3.125 µM, (D,P) CaNCR63_1-20, 3.125 µM, (E,Q) CaNCR63_15-34, 3.125 µM, (F,R) MsNCR443, 3.125 µM, (G,S) MsNCR463_16-35, 1.6 µM, (H,T) MsNCR463_17-30, 3.125 µM, (I,U) PsNCR349, 1.6 µM, (J,V) PsNCR349_26-50, 3.125 µM, (K,W) PsNCR349_31-50, 3.125 µM, (L,X) PsNCR352, 1.6 µM.

[3] = system: Candida albicans W01 strain; assay: microbe, parasite or virus in culture; format: cell-based; details: read-out: MFC, minimal fungicidal concentration against C. albicans
Excerpt: The following pathogenic bacterial strains were used: The Gram-positive Enterococcus faecalis (ATCC 29212), Staphylococcus aureus (HNCMO112011), Listeria monocytogenes (ATCC 19111) and the Gram-negative Pseudomonas aeruginosa (ATCC 27853), Escherichia coli (ATCC 8739), Salmonella enterica (ATCC 13076), Klebsiella pneumoniae (NCTC 13440), Acinetobacter baumannii (ATCC 17978) obtained from the ATCC (United States) and NCTC (National Collection of Type Cultures–England). For the antifungal experiment the Candida albicans W01 strain ([Ördögh et al., 2014]) was used. Antimicrobial activities of peptides against ∼10^7 log phase bacteria were tested in Potassium-Phosphate Buffer (PPB, pH 7.4) as described by [Jenei et al. (2020)] while anti-Candida assays were done according to [Szerencsés et al. (2021)]. The two-fold dilution series of peptides ranged from 25 μM to 0.125 μM, while that of the antibiotics ampicillin (Merck) and miconazole (Duchefa Biochemie) from […] to 0.1 μM. The lowest concentration of the antimicrobial agents, which completely eliminated viable bacteria or C. albicans were considered as the minimal bactericidal concentration (MBC) and minimal fungicidal concentration (MFC).

[4] = system: E. coli, S. enteritidis, P. aeruginosa, L. monocytogenes, S. aureus, E. faecalis, K. pneumoniae and A. baumannii; assay: Antimicrobial activity assay, spectrum over the eight tested pathogenic bacteria; format: cell-based; details: 3 h treatment of ~10^7 log phase bacteria, peptides 25 to 0.8 µM; active = MBC ≤25 µM
Procedure, shortened: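 MBC taken as the lowest peptide concentration leaving no viable bacteria after 3 h exposure of ~10^7 log-phase cells. Peptides tested by 2-fold serial dilution, 25 µM down to 0.8 µM, in PPB (pH 7.4). Gram-positive and Gram-negative reference strains from ATCC, NCTC and HNCMO collections.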

[5] = system: Escherichia coli (ATCC 8739); format: cell-based; details: ATCC 8739, 3 h
Procedure, shortened: as §1

[6] = system: Staphylococcus aureus (HNCMO112011); format: cell-based; details: HNCMO112011, 3 h
Procedure, shortened: as §1

[7] = system: Listeria monocytogenes (ATCC 19111); format: cell-based; details: ATCC 19111, 3 h
Procedure, shortened: as §1

[8] = system: Pseudomonas aeruginosa (ATCC 27853); format: cell-based; details: ATCC 27853, 3 h
Procedure, shortened: as §1

[9] = system: Salmonella enterica (ATCC 13076); format: cell-based; details: ATCC 13076, 3 h
Procedure, shortened: as §1

[10] = system: Klebsiella pneumoniae (NCTC 13440); format: cell-based; details: NCTC 13440, 3 h
Procedure, shortened: as §1

[11] = peptides carrying a StrepII tag at their C-terminus, 25 µM, 10% Fetal Bovine Serum, 37°C, 18 h; StrepTactin-HRP Western blot
Method: Peptides were incubated in 10% Fetal Bovine Serum at 37°C for 18 h. Full length NCRs were used at 25 μM, while short derivatives at 50 μM. The serum proteins and peptides were separated by sodium dodecyl sulfate-polyacrylamide gel electrophoresis (SDS-PAGE, 12% bis-tris gel, MES buffer pH 7.3) and visualized by Coomassie blue staining. NCRs with StrepII tag at their C-terminus were also detected by Western blot analysis using Precision Protein StrepTactin-HRP conjugate antibody (BioRad) and Clarity Western ECL (BioRad) for chemiluminescence detection according to the supplier.
FIGURE S3 Serum stability assay. Full length NCRs, StrepII-tagged NCR peptides (25 µM) and shorter NCR derivatives (50 µM) were incubated in water or in 10% Fetal Bovine Serum (FBS) for 18 hours at 37°C. Serum proteins and the peptides were separated by SDS-Page and visualized by Coomassie blue staining or in the case of StrepII-tagged NCRs also with Western blot. […]

[12] = system: Enterococcus faecalis (ATCC 29212); format: cell-based
Procedure, shortened: as §1

[13] = ~10^7 log phase bacteria, Potassium-Phosphate Buffer pH 7.4, 3 h treatment, two-fold dilution series, lowest concentration completely eliminating viable bacteria
[14] = C. albicans W01, two-fold dilution series, lowest concentration completely eliminating viable C. albicans

Row | Compound | Aggregation of HindIII-digested λ DNA (DNA retained in loading wells) [1] | MBC ([2]; ATCC 17978, 3 h, pH 7.4) | Morphology of C. albicans cells by SEM (C. albicans) | Morphology of A. baumannii cells by SEM (A. baumannii) | MFC ([3]; W01 strain) | Antibacterial spectrum over the eight tested bacterial strains [4] | MBC Acinetobacter baumannii ([2]; ATCC 17978, 3 h) | MBC [2, 13] | MBC Escherichia coli [5] | MBC Staphylococcus aureus [6] | MBC Listeria monocytogenes [7] | MBC Pseudomonas aeruginosa [8] | MBC Salmonella enterica [9] | MBC Klebsiella pneumoniae [10] | MFC [3, 14] | Stability in serum by Western blot [11] | Ability to kill E. faecalis ([12]; 3 h, ~10^7 log phase bacteria, peptides ≤25 µM) | MBC Enterococcus faecalis ([12]; ATCC 29212, 3 h)
1 | CC[C@H](C)[C@H](NC(=O)[C@H](CCCCN)NC(=O)[C@H](CO)NC(=O)[C@H](CCCNC(=N)N)NC(=O)[C@@H]1CCCN1C(=O)[C@H](CS)NC(=O)[C@H](CCCNC(=N)N)NC(=O)[C@H](Cc1ccc(O)cc1)NC(=O)[C@H](CCCCN)NC(=O)[C@H](CCCCN)NC(=O)[C@H](CS)NC(=O)[C@H](CC(=O)O)NC(=O)[C@@H](NC(=O)[C@H](CCCNC(=N)N)NC(=O)[C@@H](NC(=O)[C@H](CCCCN)NC(=O)[C@H](CS)NC(=O)[C@@H](NC(=O)[C@H](CCSC)NC(=O)[C@@H](N)CCCCN)[C@@H](C)CC)[C@@H](C)O)C(C)C)C(N)=O [CaNCR63_1-20] (H-KMICKTRVDCKKYRCPRSKI-NH2; N-terminus assumed) | less efficient than either the full-length peptide or the C-terminal CaNCR63_15-34 | 6.25 µM (≈ 15.4 µg/mL) | most similar to the control | rough cell surface, lysis and flattening of the cells | 25 µM (≈ 61.4 µg/mL) |  |  |  |  |  |  |  |  |  |  |  |  | 
2 | CC[C@H](C)[C@H](NC(=O)[C@H](CS)NC(=O)[C@H](CCCCN)NC(=O)[C@@H](NC(=O)[C@@H](NC(=O)[C@H](Cc1ccccc1)NC(=O)[C@H](CCCCN)NC(=O)[C@H](CO)NC(=O)[C@H](CO)NC(=O)[C@@H](NC(=O)[C@H](CC(C)C)NC(=O)[C@H](CCCCN)NC(=O)[C@@H]1CCCN1C(=O)[C@H](CS)NC(=O)[C@H](CC(=O)O)NC(=O)[C@H](C)NC(=O)[C@@H](NC(=O)[C@@H](NC(=O)[C@H](CCCNC(=N)N)NC(=O)[C@H](CS)NC(=O)[C@H](CCC(=O)O)NC(=O)[C@@H](NC(=O)[C@H](CO)NC(=O)[C@@H](N)CCC(=O)O)[C@@H](C)CC)[C@@H](C)O)C(C)C)[C@@H](C)CC)C(C)C)[C@@H](C)CC)C(=O)N[C@@H](CCCCN)C(=O)N[C@@H](CCCCN)C(=O)N[C@@H](CCCNC(=N)N)C(=O)N[C@@H](CS)C(=O)N[C@H](C(=O)N[C@@H](C)C(=O)N[C@@H](CCC(N)=O)C(=O)N[C@@H](Cc1ccccc1)C(=O)N[C@@H](Cc1ccccc1)C(=O)N[C@@H](CCCCN)C(=O)O)C(C)C [MsNCR443] (H-ESIECRTVADCPKLISSKFVIKCIKKRCVAQFFK-OH; N-terminus assumed) | did not |  | aggregation of shrunken cells in a spider net like matrix | Filament-like structures | 6.25 µM (≈ 24.5 µg/mL) | broad-spectrum activity | 1.6 µM (≈ 6.27 µg/mL) | 6.25 µM (≈ 24.5 µg/mL) | 1.6 µM (≈ 6.27 µg/mL) | 12.5 µM (≈ 49 µg/mL) | 12.5 µM (≈ 49 µg/mL) | 6.25 µM (≈ 24.5 µg/mL) | 25 µM (≈ 98 µg/mL) | 12.5 µM (≈ 49 µg/mL) |  |  |  | 
3 | CC(C)[C@H](NC(=O)CNC(=O)[C@H](CCCNC(=N)N)NC(=O)[C@H](CCCCN)NC(=O)[C@@H]1CCCN1C(=O)[C@H](CCCCN)NC(=O)[C@@H](N)CS)C(=O)N[C@@H](CC(N)=O)C(=O)N[C@@H](Cc1ccccc1)C(=O)N[C@@H](CCCNC(=N)N)C(=O)N[C@@H](CS)C(=O)N[C@@H](CCCNC(=N)N)C(=O)N[C@@H](CCCCN)C(=O)NCC(=O)N[C@@H](CCCCN)C(=O)N[C@@H](CS)C(=O)N[C@@H](Cc1ccccc1)C(=O)N1CCC[C@H]1C(=O)N[C@H](C(=O)N[C@@H](CCCNC(=N)N)C(N)=O)C(C)C [MsNCR463_16-35] (H-CKPKRGVNFRCRKGKCFPVR-NH2; N-terminus assumed) | DNA remained in the wells |  | Flattening of cells | budding of vesicles; also recorded: Filament-like structures | 3.125 µM (≈ 7.43 µg/mL) |  |  | 1.6 µM (≈ 3.81 µg/mL) |  |  |  |  |  |  | 3.1 µM (≈ 7.37 µg/mL) |  |  | 
4 | ITISNSSFGRIVYWNCKTDKDCKQHRGFNFRCRSGNCIPIRR-OH (cysteines drawn unpaired) [NCR183] |  |  |  |  |  | effective against five or four strains |  |  | 6.25 µM |  | 6.25 µM | 6.25 µM | 25 µM |  |  | stable in the presence of FBS | able to kill | 25 µM
5 | YNLKYCTNDKDCPTMMCFPPDVSKCVWKTCYCVQKHKKKLKKKKKLTFNM-OH (cysteines drawn unpaired) [PsNCR349] | DNA remained in the wells |  | Flattening of cells | Only dead cells were visible |  | broad-spectrum activity |  |  |  |  |  |  |  |  | 3.125 µM |  |  | 
